ChEMBL document CHEMBL2390819, “A convenient synthesis of GDP-D-rhamnose: the donor substrate for D-rhamnosyltransferase WbpZ from Pseudomonas aeruginosa PAO1” (Bioorg Med Chem Lett, 2013)
Calls of active or inactive are those of the source. The calls are words filed in the database; no cut-off is given here.

Molecular target: T1, D-rhamnosyltransferase WbpZ (Pseudomonas aeruginosa (strain ATCC 15692 / PAO1 / 1C / PRS 101 / LMG12228)) (UniProt Q9HTC0)
T1 sequence (whole entry): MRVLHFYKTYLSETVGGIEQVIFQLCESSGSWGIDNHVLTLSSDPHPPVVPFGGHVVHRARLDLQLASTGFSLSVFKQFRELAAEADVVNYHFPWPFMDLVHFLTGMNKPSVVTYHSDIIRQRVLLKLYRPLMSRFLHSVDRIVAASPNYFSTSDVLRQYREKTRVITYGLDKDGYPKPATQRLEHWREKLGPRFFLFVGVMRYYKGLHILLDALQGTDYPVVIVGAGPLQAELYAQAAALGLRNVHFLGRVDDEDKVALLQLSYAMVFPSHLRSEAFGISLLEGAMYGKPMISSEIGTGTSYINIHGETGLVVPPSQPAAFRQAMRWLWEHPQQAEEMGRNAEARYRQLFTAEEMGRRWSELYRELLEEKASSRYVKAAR
Assay: Activity at Pseudomonas aeruginosa PAO1 his-tagged D-rhamnosyltransferase WbpZ expressed in Escherichia coli BL21 at 0.25 mM after 1 hr by MALDI-MS analysis

For `C[C@H]1O[C@H](OP(=O)(O)OP(=O)(O)OC[C@H]2O[C@@H](n3cnc4c(=O)[nH]c(N)nc43)[C@H](O)[C@@H]2O)[C@@H](O)[C@@H](O)[C@@H]1O`, the Activity was “Active”.
